From patent US10815297B2, “Antagonists of IL17C for the treatment of inflammatory disorders” (MorphoSys AG, priority 2011, dated 2020)

How the values were obtained:
[1] = test system: TS-exposed mice (C57BL/6J), pulmonary inflammation; assay: Tobacco smoke model, cells recovered in bronchoalveolar lavage; type: in vivo, mouse
Experimental: The response consisted of significant increases in the numbers of macrophages, epithelial cells, neutrophils and lymphocytes recovered in BAL.
Vehicle (PBS), MOR12743 and MOR03207 were administered i.p., 1 h prior to TS-exposure on days 1, 4, 7 and 10 of the study. Roflumilast was administered p.o., 1 h prior to each TS-exposure.
In this exposure protocol, mice were exposed in groups of 5 in clear polycarbonate chambers (27 cm×16 cm×12 cm). The TS from ‘Marlboro 100’ cigarettes was allowed to enter the exposure chambers at a flow rate of 100 mL/min. In order to minimise any potential problems caused by repeated exposure to a high level of TS, the exposure period to TS was increased initially from 25 minutes at the start of the study (day 1) to a maximum of 45 minutes on day 3. The exposure schedule used in this study was as follows:
The trachea was cannulated using a 10 mm long Luer fitting stainless steel cannula. Phosphate buffered saline (PBS) was used as the lavage fluid. A volume of 0.4 mL was gently instilled and withdrawn 3 times using a 1 mL syringe and then placed in an Eppendorf tube and kept on ice prior to subsequent determinations.
Lavage fluid was separated from cells by centrifugation (6 min at 3400 rpm, RCF=3070×g—‘Eppendorf Mini Spin’) and the supernatant decanted and frozen for possible subsequent analysis. The cell pellet was re-suspended in a known volume of PBS and total cell numbers calculated by counting a stained (Turks stain) aliquot under a microscope using a haemocytometer.
The residual cell pellet was diluted to approximately 10^5 cells per mL. A volume of 500 μl was placed in the funnel of a cytospin slide and centrifuged for 8 min at 800 rpm, RCF=72.26×g (Shandon Cytospin 3). The slide was air-dried and stained using Wrights/Giemsa stain as per the proprietary instructions. When dried and cover-slipped, differential cell-counts were performed using light microscopy. Approximately 400 cells were counted for each slide. Cells were identified using standard morphometric techniques.
In this study, 4 groups of mice were subjected to daily TS-exposure for 11 days and were sacrificed on the 12th day, 24 h after the final TS-exposure. Three groups received either vehicle (D-PBS), MOR12743 or MOR03207, i.p., 1 h prior to TS-exposure on days 1, 4, 7 and 10 of the study. One group received Roflumilast, p.o., 1 h prior to each TS-exposure. A further group was exposed to air for 11 consecutive days and sacrificed on the 12th day, 24 h after the final air-exposure. This group received vehicle (D-PBS), i.p., 1 h prior to exposure on days 1, 4, 7 and 10 of the study. For all groups n=10.
All mice were killed on day 12, by intra-peritoneal barbiturate anaesthetic overdose, 24 h after final exposure to air or TS. A blood sample was taken over heparin from the sub-clavian vein and the plasma separated by centrifugation and stored at −40° C. A BAL was performed using 0.4 mL of phosphate buffered saline (PBS). Cells recovered from the BAL were used for the total cell and differential cell counts. The BAL supernatants and remaining cell pellet were stored at −40° C. and −80° C. respectively for possible future analysis. Following BAL, the cannula was left tied in place. The heart and lungs were removed after gently opening the thorax and cutting down either side of the sternum and ribs. The left lobe was tied off, removed, snap-frozen and stored at −80° C. The right lobe was inflated with 10% phosphate buffered formalin (PBF) to a pressure of 18 cm of PBF for 20 minutes. The trachea was then ligated below the cannula and the cannula removed. The heart, lung & trachea were immersed in PBF.
The data were therefore initially subjected to a one-way analysis of variance test (ANOVA), followed by a Bonferroni correction for multiple comparisons in order to test for statistically significant differences between treatment groups. A “p” value of <0.05 was considered to be statistically significant. […]

[2] = test system: mouse CIA model (DBA1/J mice); assay: Mouse collagen induced arthritis (CIA) model, therapeutic protocol; type: in vivo; details: 10 mg/kg, 3x week, i.p., day 31 to day 46
Experimental: DBA1/J mice (male, 6-7 weeks old, approx 20 gram) were obtained from Centre d'Elevage Regional Janvier (Laval, France). Mice were kept on a 12 hr light/dark cycle (0700-1900). Temperature was maintained at 22° C., and food and water were provided ad libitum.
One day before the experiment, CII solution (2 mg/mL) was prepared with 0.05 M acetic acid and stored at 4° C. Just before the immunization, equal volumes of adjuvant […] and CII were mixed by a homogenizer in a pre-cooled glass bottle in an ice water bath. Extra adjuvant and prolonged homogenization may be required if an emulsion is not formed. 0.1 mL of the emulsion was injected intradermally at the base of the tail of each mouse on day 1, a second booster intradermal injection (CII solution at 2 mg/mL in […] 0.1 mLemulsion) was performed on day 21. This immunization method was modified from published methods (Brand et al, 2007, Collagen-induced arthritis. Nature Protocols; vol 2 (5): 1269-1275; Lin et al., 2007, Anti-rheumatic activities of histone deacetylase (HDAC) inhibitors in vivo in collagen-induced arthritis in rodents. Br J Pharmacol. April; 150 (7):829-31).
The therapeutic effects of the antibodies were tested in the mouse CIA model. Mice were randomly divided into equal groups and each group contained 10 mice. All mice were immunized on day 1 and boosted on day 21. Therapeutic dosing lasted from day 31 to day 46. The negative control group was treated with vehicle (PBS) and the positive control group with Enbrel (10 mg/kg, 3× week, i.p.). An antibody of interest was tested at 10 mg/kg, i.p. 3 times per week.
Anti-IL17C antibodies were administered i.p. three times a week at 10 mg/kg. […]
Arthritis was scored according to the method of Khachigian 2006 (Collagen antibody-induced arthritis. (2006) Nature Protocols 1, 2512-6), Lin et al 2007 (supra); Nishida et al. 2004 (Histone deacetylase inhibitor suppression of autoantibody-mediated arthritis in mice via regulation of p16INK4a and p21(WAF1/Cip1) expression. Arthritis Rheum. 10: 3365-76); and Brand et al. 2007 (supra). […]

mouse IL17C = target: T1, mouse IL17C (Mus musculus, UniProt Q8K4C5); assay: ELISA titration on mouse IL17C (EC50 determination); type: binding
T1 construct: purchased R&D Systems 2306-ML/CF
T1 sequence (Q8K4C5 17-194): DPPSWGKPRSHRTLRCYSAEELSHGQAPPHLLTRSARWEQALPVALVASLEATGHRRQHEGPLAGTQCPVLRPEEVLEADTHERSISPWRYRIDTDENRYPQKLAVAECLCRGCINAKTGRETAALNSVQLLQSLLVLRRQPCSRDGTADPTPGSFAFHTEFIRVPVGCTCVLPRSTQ
Experimental: All purified chimeric human-mouse chimeric IgG2a antibodies were titrated on mouse IL17C for EC50 determination in ELISA starting with a concentration of 100 nM. EC50 values on mouse IL17C were determined in 1 to 3 independent experiments.

For `O=C(Nc1c(Cl)cncc1Cl)c1ccc(OC(F)F)c(OCC2CC2)c1` [Roflumilast, reference compound], the “Inhibition of epithelial cells in BAL” value ([1]; 5 mg/kg p.o. q.d.) was 50%, the “Inhibition of lymphocytes in BAL” value ([1]; 5 mg/kg p.o. q.d.) was 54% and the “Inhibition of macrophages in BAL” value ([1]; 5 mg/kg p.o. q.d.) was 13%. For the same molecule, the “Inhibition of neutrophils in BAL” value ([1]; 5 mg/kg p.o. q.d.) was 56%, the “Inhibition of total cells in BAL” value ([1]; 5 mg/kg p.o. q.d., 1 h prior to each TS-exposure) was 32% and the “inhibition of total cell numbers recovered in the BAL (in words)” value ([1]; 5 mg/kg p.o., 1 h prior to each TS-exposure) was “significantly inhibited”.

For etanercept [Enbrel, reference compound], the “inhibition of inflammation / disease progression (clinical score)” value [2] was “did inhibit”.

B1: MOR12758: anti-mouse IL17C HuCAL antibody; CDRs SEQ ID NO: 131-136, VL 137, VH 138 (antibody, V domains shown)
VH: EVQLVQSGAEVKKPGESLKISCKGSGYSFTDYWISWVRQMPGKGLEWMGAIDPTDSYTRYSPSFQGQVTISADKSISTAYLQWSSLKASDTAMYYCARWYTSHPYYEGRYPMDVWGQGTLVTVSS
VL: DIALTQPASVSGSPGQSITISCTGTSSDVGHYNYVSWYQQHPGKAPKLMIYGVTKRPSGVSNRFSGSKSGNTASLTISGLQAEDEADYYCASADEWPTLHVFGGGTKLTVLGQ
modifications: VH; VL
For B1, the “binding activity with purified IgG2a” value (mouse IL17C) was “could not be confirmed”.

B2: MOR12757: anti-mouse IL17C HuCAL antibody; CDRs SEQ ID NO: 121-126, VL 127, VH 128 (antibody, V domains shown)
VH: EVQLLESGGGLVQPGGSLRLSCAASGFTFSSYAMSWVRQAPGKGLEWVSFISSGGSETFYADSVKGRFTISRDNSKNTLYLQMNSLRAEDTAVYYCARVSYIYYYSWVLFDVWGQGTLVTVSS
VL: DIQMTQSPSSLSASVGDRVTITCRASQGIGTALNWYQQKPGKAPKLLIYDVSSLQSGVPSRFSGSGSGTDFTLTISSLQPEDFATYYCQQGLFLPFTFGQGTKVEIKRT
modifications: VH; VL
With B2 the “binding activity with purified IgG2a” value (mouse IL17C) was “could not be confirmed”.

B3: MOR12756: anti-mouse IL17C HuCAL antibody; CDRs SEQ ID NO: 111-116, VL 117, VH 118 (antibody, V domains shown)
VH: QVQLQQSGPGLVKPSQTLSLTCAISGDSVSDNSVAWNWIRQSPSRGLEWLGRIYYRSKWYNDYAVSVKSRITINPDTSKNQFSLQLNSVTPEDTAVYYCAREVLLFPARSYGTGMDVWGQGTLVTVSS
VL: DIELTQPPSVSVSPGQTASITCSGDNLPSKYVHWYQQKPGQAPVLVIYDDNERPSGIPERFSGSNSGNTATLTISGTQAEDEADYYCGVADMPRQMKVFGGGTKLTVLGQ
modifications: VH; VL
For B3, the “binding activity with purified IgG2a” value (mouse IL17C) was “could not be confirmed”.

B4: MOR12755: anti-mouse IL17C HuCAL antibody; CDRs SEQ ID NO: 101-106, VL 107, VH 108 (antibody, V domains shown)
VH: QVQLQQSGPGLVKPSQTLSLTCAISGDSVSSNSAAWNWIRQSPSRGLEWLGKTYYRSTWSNDYAESVKSRITINPDTSKNQFSLQLNSVTPEDTAVYYCAREMDSLTRSASSIAFDYWGQGTLVTVSS
VL: DIELTQPPSVSVSPGQTASITCSGDNLREHYVHWYQQKPGQAPVLVIYDDTERPSGIPERFSGSNSGNTATLTISGTQAEDEADYYCATRDWSNVVFGGGTKLTVLGQ
modifications: VH; VL
In the case of B4, the “binding activity with purified IgG2a” value (mouse IL17C) is reported as “could not be confirmed”.
